Data reported in patent US7005274B1, “Methods and compositions for diagnosing and treating arthritic disorders and regulating bone mass” (MIGENIX Corp., priority 1999, dated 2006).

What was measured:
Articular Chondrocytes = test: Intracellular ATP, luciferase assay; assay type: cell-based, human; details: 10 ng/ml TGFβ, 0.025 mM antimycin A, 0.02 μg/ml oligomycin; mean ± SD
Description: Human articular cartilage chondrocytes were obtained by collagenase digestion of articular cartilage samples, and subsequent monolayer culture, essentially as described by Terkeltaub et al. (Arthritis Rheum. 41:2152–2164, 1998). The starting material for these primary cultures was human articular cartilage excised during surgical joint replacement, or obtained at autopsy from normal or osteoarthritic joints. The articular chondrocytes were grown in Dulbecco's modified Eagle's Medium with high glucose (DMEM high glucose, Life Technologies, Inc. Grand Island, N.Y.) with 10% fetal calf serum (FCS), 1% glutamine, 100 U/ml penicillin and 50 μg/ml streptomycin (all reagents from Sigma, St. Louis, Mo., unless otherwise noted). Typically, only first passage cells were used in the studies described herein.
Levels of total cellular ATP were measured by a modification of luciferase-based assays known in the art (Lin et al., Anal. Biochem. 24:531–540, 1968); related assays and modifications may alternatively be used (see, e.g., Turman et al., In Vitro Cell. Dev. Biol. Anim. 32:1–4, 1996, for an assay format that uses a fluorescent plate reader). In brief, 2×10^6 cells were washed and pelleted in 10 ml phosphate-buffered saline (PBS). The cell pellets were snap-frozen in a dry ice/ethanol bath, after which […] of 0.2 M HCl was added, followed by 0.3 ml of 2 mM glycine (pH 9.0). Samples were heated at 100° C. for five minutes, then placed on ice. A standard curve was developed using 0 to 500 pmol of purified ATP (disodium salt). One hundred (100) μl of the cell extract, or purified ATP standard, was added to an equal volume of the ATP assay mixture (containing MgSO4, DTT, EDTA, luciferase and luciferin, all from the Sigma Bioluminescence Assay Kit and all diluted 1:25). Following a 5 second incubation and 15 second integration, samples were read on a TD-20/20 Luminometer (Turner Designs, Sunnyvale, Calif.). […]

TC28 cells = test: Intracellular ATP, luciferase assay; assay type: cell-based; details: 10 ng/ml TGFβ, 0.025 mM antimycin A, 0.02 μg/ml oligomycin; mean ± SD
Description: Levels of total cellular ATP were measured by a modification of luciferase-based assays known in the art (Lin et al., Anal. Biochem. 24:531–540, 1968); related assays and modifications may alternatively be used (see, e.g., Turman et al., In Vitro Cell. Dev. Biol. Anim. 32:1–4, 1996, for an assay format that uses a fluorescent plate reader). In brief, 2×10^6 cells were washed and pelleted in 10 ml phosphate-buffered saline (PBS). The cell pellets were snap-frozen in a dry ice/ethanol bath, after which […] of 0.2 M HCl was added, followed by 0.3 ml of 2 mM glycine (pH 9.0). Samples were heated at 100° C. for five minutes, then placed on ice. A standard curve was developed using 0 to 500 pmol of purified ATP (disodium salt). One hundred (100) μl of the cell extract, or purified ATP standard, was added to an equal volume of the ATP assay mixture (containing MgSO4, DTT, EDTA, luciferase and luciferin, all from the Sigma Bioluminescence Assay Kit and all diluted 1:25). Following a 5 second incubation and 15 second integration, samples were read on a TD-20/20 Luminometer (Turner Designs, Sunnyvale, Calif.).

[1] = system: articular chondrocytes and TC28 cells; test: Cell viability by trypan blue dye exclusion; assay type: cell-based, human; details: 0.025 mM antimycin A or 0.02 μM oligomycin, 72 hours
Description: Nonlethal but mitochondrial effective doses of antimycin A were determined as follows. Progressively higher concentrations of antimycin A (Sigma Chemical Co., St. Louis, Mo.) were added to cultured articular condrocytes and TC-28 cells. Cell proliferation was measured by incorporation of fluorogenic H33258 (Calbiochem, La Jolla, Calif.) essentially according to the manufacturer's instructions, and cell viability was assessed by trypan blue dye exclusion (Medzihradsky et al., Biochem. Med. 13:164–177, 1975), essentially according to the instructions of the manufacturer (Sigma).
The objective of these studies was to find, if possible, a level of antimycin A that depressed total cellular ATP levels without causing more than 10% loss of viability. In FIG. 1A, articular chondrocytes or TC28 cells (5×10^5) in 5 ml were studied in triplicate in the presence of antimycin (or oligomycin, see next Example) at the indicated concentrations, administered every 24 hours for a total of 72 hours, and total intracellular ATP concentrations were determined as described above. […]

[2] = system: articular chondrocytes and TC28 cells; test: Level of glycolysis; assay type: cell-based, human; details: 0.025 mM antimycin A or 0.02 μM oligomycin
chondrocytes = test: Extracellular and intracellular PPi elaboration; assay type: cell-based, human; details: for ability of TGFβ to increase extracellular and intracellular PPi: TGFβ 10 ng/ml; for basal PPi elaboration: absence of TGFβ
Description: One set of experiments described in this Example and presented in FIG. 4 examined the effects of agents that inhibit mitochondrial function on PPi elaboration in the absence of TGFβ. Chondrocytes (primary cultures and immortalized cell line TC-28) were prepared, cultured and treated with oligomycin (FIG. 4A), or with antimycin A (FIG. 4B), as in the preceding Examples. Extracellular PPi was determined radiometrically, and equalized for cellular DNA, according to the method of Terkeltaub et al. (Arthritis Rheum. 41:2152–2164, 1998). To determine intracellular PPi levels, washed cells were heated at 65° C. for 45 minutes, washed again and lysed in lysis buffer (1% Triton X-100, 1.6 mM MgCl2, 0.2 M Tris, pH 8.1), essentially according to the procedures described by Lotz et al. (Proc. Natl. Acad. Sci. U.S.A. 92:10364–10368, 1995).
Another set of experiments examined the ability of inhibitors of mitochondrial function to impact the ability of TGFβ to increase intracellular and extracellular PPi levels. Antimycin A- (FIG. 4B) or oligomycin-treated (FIG. 4A) chondrocytes, as well as control (untreated) cells, prepared as described in the preceding Examples, were incubated with or without TGFβ (10 ng/ml), and levels of extracellular and intracellular PPi levels were determined.

Molecule | ATP (pmoles/μg DNA): Articular Chondrocytes (Articular Chondrocytes) [pmoles/μg DNA] | ATP (pmoles/μg DNA):TC28 cells (TC28 cells) [pmoles/μg DNA] | loss of viability [1] | effect on level of glycolysis [2] | ability of TGFβ to increase extracellular and intracellular PPi (chondrocytes) | basal PPi elaboration (chondrocytes)
CC[C@H]1/C=C/C=C/C[C@@H](C)[C@H](O)[C@@](C)(O)C(=O)[C@@H](C)[C@H](O)[C@@H](C)C(=O)[C@@H](C)[C@H](O)[C@@H](C)/C=C/C(=O)O[C@@H]2[C@H](C)[C@H](CC1)O[C@]1(CC[C@H](C)[C@H](C[C@@H](C)O)O1)[C@H]2C [oligomycin] | 221.2 ± 14.0 | 198.6 ± 3.7 | less than 10% | without altering the constitutively high level of glycolysis | abrogated the ability of TGFβ to increase extracellular and intracellular PPi | attenuated basal PPi elaboration
antimycin A | 93.73 ± 5.9 | 69.78 ± 4.0 | less than 10% | without altering the constitutively high level of glycolysis | abrogated the ability of TGFβ to increase extracellular and intracellular PPi | attenuated basal PPi elaboration
